Laboratory results taken from patent publication US20070202079A1, “Therapeutic compositions and methods useful in modulating protein tyrosine phosphatases” (priority 2006, published 2007).

Columns and labels:
[1] = system: DS cells; assay: DS cell growth, MTT; format: cell-based, human; conditions: day 3; IFN-alpha 1,000 u/ml or sodium stibogluconate by itself
Procedure: For cell proliferation assays, cells were grown in 10% FCS culture medium containing various amounts of IFNs and/or sodium stibogluconate in 96 well plates and cultured at 37° C. for 3 or 6 days as indicated. The numbers of viable cells in proliferation assays were determined by MTT assays as described in Phatak et al., J. Immunol. 167, 3391 (2001).

[2] = system: Renca cells; assay: Renca cell growth, MTT; format: cell-based, murine; conditions: SSG 6.25-200 μg/ml, 6 days; listed as SSG
Description: Renca (Murphy, G. P., and W. J. Hrushesky. 1973. A murine renal cell carcinoma. J Natl Cancer Inst 50:1013), Jurkat (Gillis, S., and J. Watson. 1980. Biochemical and biological characterization of lymphocyte regulatory molecules. V. Identification of an interleukin 2-producing human leukemia T cell line. J Exp Med 152:1709) and WM9 (Forsberg, K., I. Valyi-Nagy, C. H. Heldin, M. Herlyn, and B. Westermark. 1993. Platelet-derived growth factor (PDGF) in oncogenesis: development of a vascular connective tissue stroma in xenotransplanted human melanoma producing PDGF-BB. Proc Natl Acad Sci USA 90:393) cell lines were obtained from a colleague at the Cleveland Clinic Foundation (CCF) and cultured in RPMI 1640 medium supplemented with 10% fetal calf serum (FCS). Recombinant IL-2 (Proleukin, 22 million IU/1.3 mg, Chiron, Emeryville, Calif.) was purchased from the CCF pharmacy. […] For cell growth inhibition assays, cells were cultured in absence or presence of various amounts of SSG for 6 days with viable cells quantified by MTT assays as described elsewhere (Pathak, M. K., and T. Yi. 2001. Sodium stibogluconate is a potent inhibitor of protein tyrosine phosphatases and augments cytokine responses in hemopoietic cell lines. J Immunol 167:3391).

[3] = system: Renca tumors; assay: Renca tumors in Balb/c mice; format: in vivo; conditions: Balb/c mice, two weeks
Procedure: Balb/c and athymic nude Balb/c mice (10 weeks old, female, Taconic Farms, Germantown, N.Y.) were inoculated (s.c.) at the flanks with Renca cells (10^6 cells/site). Four days post-inoculation, the mice were subject to no treatment (Control) or treatment with IL-2 ([…]/daily for 5 days, i.p.), SSG (12 mg/daily, i.m. at hip regions) or the combination of the two agents for two weeks. […] The dose of SSG was similar to the effective daily dose of the drug for the treatment of murine leishmaniasis (Murray, H. W., J. D. Berman, and S. D. Wright. 1988. Immunochemotherapy for intracellular Leishmania donovani infection: gamma interferon plus pentavalent antimony. J Infect Dis 157:973). Tumor volume was measured during the study period and calculated using the formula for a prolate spheroid (V=4/3×a2b) (Lindner, D. J., E. C. Borden, and D. V. Kalvakolanu. 1997. Synergistic antitumor effects of a combination of interferons and retinoic acid on human tumor cells in vitro and in vivo. Clin Cancer Res 3:931). Student's t test was used for assessing the significance of tumor volume differences among differential treatment groups. Mouse viability (daily) and body weights (weekly) were also recorded during the study period. At the end of the study, Renca tumors and major internal organs (heart, kidney, liver, lung and spleen) were harvested for histology and immunohistochemistry analysis.

[4] = system: Hey; assay: HEY cell growth, MTT; format: cell-based, human; conditions: 100 μg/ml, day 6
Procedure: NIH3T3 (Yi, et al., Blood 85, 87 (1995)), WM9 (Forsberg, et al., Proc. Nat. Acad Sci. USA 90, 393 (1993)), DU145 (Mickey, et al., Cancer Res. 37, 4049 (1977)), LoVo (Drewinko, et al., Cancer Res. 36, 467 (1976)), HEY (Buick, et al., Cancer Res. 45, 3668 (1985)), U251 (Yoshida, et al., Cancer 50, 410 (1982)), A549 (Giard, et al., J. Natl. Cancer Inst. 51, 1417 (1973)) and SK-N-SH (Helson, et al., Cancer Res. 35, 2594 (1975)) cell lines have been described and were cultured in RPMI 1640 supplemented with 10% fetal calf serum (FCS). For measurement of sodium stibogluconate effects on cell growth in vitro, cells were cultured in the absence (−) or presence (+) of various amounts of sodium stibogluconate for 6 days with viable cells quantified by MTT assays (Mosmann, J. Immunol. Methods 65, 55 (1983)). Percentages of growth inhibition by sodium stibogluconate were calculated (.+−.x%).

[5] = system: DU145R cells; assay: DU145R cell growth, MTT; format: cell-based, human; conditions: day 6 culture
Procedure: DU145 cells were cultured in the presence of sodium stibogluconate (100 μg/ml) in 48 well plates for 3 weeks. Cells from a well containing a single colony were transferred to flasks, cultured in sodium stibogluconate-free medium for 3 weeks and used as DU145R cells for further characterization. Growth of DU145R cells in the absence or presence of sodium stibogluconate in day 6 culture was determined by MTT assays. cDNAs of the coding region of PRLs were derived by RT-PCR from DU145 and DU145R cells and sequenced using primers described below.

[6] = standard dosage 10-20 mg/kg/day; cited from earlier work

For `O.O.O.O.O.O.O.O.O.O=C([O-])[C@@H]1[O][Sb]2([O-])([O][Sb]34([OH])[O][C@H]([C@H](O)CO)[C@H]([O]3)[C@H](C(=O)[O-])[O]4)[O][C@H]([C@H](O)CO)[C@@H]1[O]2.[Na+].[Na+].[Na+]` [sodium stibogluconate], the DS cell growth [1] was “modest activity”, the “Renca cell growth in culture” value [2] was “failed to inhibit Renca cell proliferation” and the tolerance of treatment [3] was “tolerated well”. For the same molecule, the “cell killing of Hey” value [4] was “near-complete cell killing”, the “growth of DU145R versus parental DU145 in presence of drug” value [5] was “growth resistance” and the serum levels [6] was no less than 10000 ng/mL.
